Assay results from article PMC11048566, “The Development of a Regulator of Human Serine Racemase for N-Methyl-D-aspartate Function” (Biomedicines, 2024).

Tests used:
[1] = molecular target: D-amino acid oxidase (DAAO) (Homo sapiens, UniProt P14920); experiment: DAAO enzymatic assay; format: biochemical; details: 5 mM D-serine, pH 8.5
Procedure: A reaction mixture for the DAAO assay, with a final volume of 100 µL was made with 1 µL 2 times serially diluted α12G (4 µM to 7.8 nM), 45 µM FAD, 10 units of HRP, 60 ng DAAO, 10 mM Amplex Red^TM, 5 mM D-serine, and 100 mM Tris HCl (pH = 8.5). All reactions were performed in duplicates. The fluorescence was detected by a fluorometric meter (TECAN Infinite 200). The racemization percentage was calculated as follows: activity % = (Fsample, 20 min − Fsample, 0 min)/(Fblank, 20 min − Fblank, 0 min) × 100%.

[2] = molecular target: T1, hSR (Homo sapiens, UniProt Q9GZT4); experiment: Intrinsic tryptophan fluorescence (ITF) binding assay; details: 0.25 mM ATP, Hill slope model
T1 construct: 6xHis (C); made in house; host or cells: E. coli BL21 (pET42b-hSR)
T1 sequence (Q9GZT4 1-340): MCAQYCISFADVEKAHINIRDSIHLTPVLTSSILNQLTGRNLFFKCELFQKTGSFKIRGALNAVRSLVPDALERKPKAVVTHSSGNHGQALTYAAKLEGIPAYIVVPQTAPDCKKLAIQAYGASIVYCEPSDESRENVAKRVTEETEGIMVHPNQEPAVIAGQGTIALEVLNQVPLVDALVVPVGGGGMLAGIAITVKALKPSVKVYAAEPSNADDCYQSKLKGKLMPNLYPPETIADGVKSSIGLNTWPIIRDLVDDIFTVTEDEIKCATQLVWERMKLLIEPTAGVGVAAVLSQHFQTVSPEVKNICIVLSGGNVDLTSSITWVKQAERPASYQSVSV
Procedure: First, 30 µL of 2 µM hSR protein was added into 270 µL buffer (100 mM Tris-HCl, pH 8.0, 1 mM MgCl2, 0.25 mM ATP, 50 µM PLP, 10% DMSO) with ligand and subsequently reacted for 20 min at room temperature. All samples were measured in triplicates and excited at 282 nm. The emission spectra were measured with a 5 nm bandwidth resolution at 300 to 400 nm wavelengths by a Varioskan™ LUX multimode microplate reader (Thermo Fisher Scientific, Lagoas Park, Porto Salvo, Portugal). The fluorescence intensity collected at 304 nm was analyzed using GraphPad Prism 8 software (Dotmatics, Boston, MA, USA). The dissociation constant (Kd) was derived by specific binding with the Hill slope model: Y = Bmax × X^n/(Kd^n + X^n), with X being the ligand concentration, maximum number of binding sites (Bmax) being the maximum specific binding, and n being Hill slope.
The Hill coefficient (n) of 1.28 is close to n = 1, indicating a noncooperative binding.

[3] = test system: MK-801-induced PPI deficit; experiment: Prepulse inhibition test in MK-801-treated mice; format: in vivo, C57BL/6J male mice; details: 1 mg/kg oral, 0.3 mg/kg MK-801 IP; PPI 6 and PPI 10; p < 0.05, n = 14
Procedure: (§1) For behavioral studies, α12G was dissolved in 35% PEG-400 and administrated by oral gavage 20 min prior to the MK-801 insult. MK-801 (Sigma-Aldrich, St. Louis, MO, USA) was administrated via intraperitoneal (IP) injection 20 min prior to the behavioral tests, with the dosage of 0.2 mg/kg for the open field test and novel object recognition test and 0.3 mg/kg for the prepulse inhibition test.
C57BL/6J male mice were randomly assigned into five groups, 6–21 mice per group, (1) saline control, (2) MK-801, (3) 1 mg/kg α12G + MK-801, (4) 3.5 mg/kg α12G + MK-801, and (5) 10 mg/kg α12G + MK-801. Prepulse inhibition (PPI), a measurement of sensorimotor gating, served as a biomarker of schizophrenia. Using the SR-LAB startle apparatus (San Diego Instruments, San Diego, CA, USA), the PPI ratio with startle response was elicited by various acoustic stimuli. Each C57BL/6J male mouse was placed in an acrylic cylinder in a dark and sound-insulated chamber. With a constant 65 dB background noise, the session comprised a 5 min acclimation period followed by 4 blocks including a total of 64 trials. […] The ratio of PPI was calculated from the startle response by the following formula: PPI % = 100 × [(PA score) − (pp-P score)]/(PA score), while the PA score was averaged from PA values in the two middle blocks.

[4] = test system: MK-801-induced memory impairment; experiment: Novel object recognition test in MK-801-treated mice; format: in vivo, C57BL/6J male mice; details: 10 mg/kg oral, 0.2 mg/kg MK-801 IP; p < 0.01, n = 8
Procedure: as §1
C57BL/6J male mice were randomly assigned into five groups, 6–8 mice per group, (1) saline control, (2) MK-801, (3) 1 mg/kg α12G + MK-801, (4) 3 mg/kg α12G + MK-801, and (5) 10 mg/kg α12G + MK-801. A novel object recognition test (NOR) was conducted in a square chamber (40 × 40 × 40 cm) under 15–20 lux light intensity, and a digital camera was used to record the behaviors. The test consisted of two sessions. In session I, mice were allowed to explore the chamber with two identical objects (yellow square Lego bricks) for 5 min and were then moved to the home cage for 5 min. In session II, mice were allowed to explore the chamber with one object kept the same (familiar object) and the other replaced with a novel object (blue circular bottle cap) for 10 min. The interaction of mice with both the objects (familiar vs. novel) was recorded, and the discrimination index was calculated with the following formula:Discrimination index = Time (novel object) − Time (familiar object)/Total exploring time

D-amino acid oxidase (DAAO), sequence (P14920 whole entry, species assumed): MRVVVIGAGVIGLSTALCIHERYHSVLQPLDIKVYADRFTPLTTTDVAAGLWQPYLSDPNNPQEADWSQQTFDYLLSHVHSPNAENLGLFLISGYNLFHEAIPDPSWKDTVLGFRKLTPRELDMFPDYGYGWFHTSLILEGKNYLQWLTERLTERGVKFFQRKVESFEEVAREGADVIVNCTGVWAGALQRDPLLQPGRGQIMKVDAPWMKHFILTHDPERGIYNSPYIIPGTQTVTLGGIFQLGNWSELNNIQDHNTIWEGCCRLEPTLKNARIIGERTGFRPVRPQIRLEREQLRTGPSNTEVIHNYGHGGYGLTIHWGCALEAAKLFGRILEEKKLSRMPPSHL

IC50 [1]: 0.16 µM | Bmax [2]: 96.86 fmol/mg | Kd ([2]; read-out: binding affinity (Kd)): 0.24 µM
SMILES: O=C(Oc1cc(C(=O)Oc2cc(C(=O)O[C@H]3OC[C@@H](OC(=O)c4cc(O)c(O)c(OC(=O)c5cc(O)c(O)c(OC(=O)c6cc(O)c(O)c(O)c6)c5)c4)[C@H](OC(=O)c4cc(O)c(O)c(OC(=O)c5cc(O)c(O)c(OC(=O)c6cc(O)c(O)c(O)c6)c5)c4)[C@H]3OC(=O)c3cc(O)c(O)c(OC(=O)c4cc(O)c(O)c(OC(=O)c5cc(O)c(O)c(O)c5)c4)c3)cc(O)c2O)cc(O)c1O)c1cc(O)c(O)c(O)c1 [α12G, (2R,3R,4S,5R)-tetrahydro-2H-pyran-2,3,4,5-tetrayl tetrakis(3-((3,4-dihydroxy-5-((3,4,5-trihydroxybenzoyl)oxy)benzoyl)ox)-4,5-dihydroxybenzoate)]
Effect on PPI deficits [3]: significantly alleviate PPI deficits | Effect on MK-801-induced memory impairment (novel object recognition) [4]: attenuated this MK-801-induced memory impairment
